Legend:
Type in all cases: cell-based
[1] = tested on: SNU-1 cell line (human metastatic gastric cancer cell line); assay: Cytotoxicity assay (WST assay), SNU-1 cell line
Protocol: (§1) The cytotoxicity of each complex-containing composition to cancer cells was tested using cancer cell lines. As the cancer cell lines, A549 cell line (human alveolar epithelial cancer cell line), ES-2 cell line (human ovarian cancer cell line), MOLT-4 cell line (human acute lymphoblastic leukemia T cell line), BxPC-3 cell line (human pancreatic adenocarcinoma cell line), SNU-1 cell line (human metastatic gastric cancer cell line), and PANC-1 cell line (human pancreatic cancer cell line) were used.
(§2) All of these cell lines were purchased from ATCC (American Type Culture Collection). Here, the A549 cell line was cultured using a 10% FCS (fetal calf serum)-containing F-12K culture medium by a general method, the ES-2 cell line was cultured using a 10% FCS-containing McCoy's 5A culture medium by a general method, each of the MOLT-4 cell line, SNU-1 cell line, and BxPC-3 cell line was cultured using a 10% FCS-containing RPMI-1640 culture medium by a general method, the PANC-1 cell line was cultured using a 10% FCS-containing DMEM culture medium by a general method, and the WI-38 cell line was cultured using a 10% FCS-containing EMEM culture medium by a general method.
(§3) First, after being recovered by thawing the frozen cancer cell lines, the recovered cancer cell lines were seeded in a 96-well plate by 100 μL to be 5×10^3 cells/well (the number of seeds was appropriately adjusted by cell species). After culturing was carried out at 37° C. for 24 hours, a culture medium to be added to the 96-well plate was removed by decantation, and then each complex-containing composition prepared at a concentration of about 1 mg/mL was added to each well by 100 μL. After culturing was carried out for 24 hours or 48 hours from the addition of the complex-containing composition (after cells are planted and cultivated for 48 hours or 72 hours), a WST-1 reagent (manufactured by Roche Inc.) was added to each well by 10 μL and incubated for 1, 1.5, and 2 hours to form a formazan dye, and then the absorbance (Abs at 450 nm) of the formazan dye was measured (WST assay). As a control, a human antibody κ type light chain not bound to metal ions or PBS was added instead of the complex-containing composition and cultured for 24 hours or 48 hours, and then WST assay was carried out. Based on the results of the obtained absorbance, the cell survival rate of the well added with the human antibody κ type light chain not bound to metal ions or the well added with the PBS was set to 100%, and the cell survival rate of each well was determined, so as to evaluate the cytotoxicity of the added complex-containing composition.

[2] = tested on: A549 cell line (human alveolar epithelial cancer cell line); assay: Cytotoxicity assay (WST assay), A549 cell line; conditions: Example 5; C51 incubated with metal ions 4 μM or cisplatin 4 μM; 24 hours; PBS set to 100%
Protocol: as §1
(§4) All of these cell lines were purchased from ATCC (American Type Culture Collection). […]
First, after being recovered by thawing the frozen cancer cell lines, the recovered cancer cell lines were seeded in a 96-well plate by 100 μL to be 5×10^3 cells/well (the number of seeds was appropriately adjusted by cell species). […] After culturing was carried out for 24 hours or 48 hours from the addition of the complex-containing composition (after cells are planted and cultivated for 48 hours or 72 hours), a WST-1 reagent (manufactured by Roche Inc.) was added to each well by 10 μL and incubated for 1, 1.5, and 2 hours to form a formazan dye, and then the absorbance (Abs at 450 nm) of the formazan dye was measured (WST assay). […]

[3] = tested on: PANC-1 cell line (human pancreatic cancer cell line); assay: Cytotoxicity assay (WST assay), PANC-1 cell line; conditions: Example 2, Fr. 3B set to 100%
Protocol: as §1, §2
as §3, with “After culturing was carried out at 37° C. for 24 hours, a culture medium to be added to the 96-well plate was removed by decantation, and then each complex-containing composition prepared at a concentration of about 1 mg/mL was added to each well by 100 μL.” left out

[4] = tested on: WI-38 cell line (human fetal lung fibroblast cell line); assay: Cytotoxicity assay (WST assay), WI-38 control cell line; conditions: Example 5; cisplatin 4.2 μM; 24 hours; PBS set to 100%
Protocol: In addition, as a control, WI-38 cell line (human fetal lung fibroblast cell line) was also used.
as §4
as §3, with “After culturing was carried out at 37° C. for 24 hours, a culture medium to be added to the 96-well plate was removed by decantation, and then each complex-containing composition prepared at a concentration of about 1 mg/mL was added to each well by 100 μL.” left out, “As a control, a human antibody κ type light chain not bound to metal ions or PBS was added instead of the complex-containing composition and cultured for 24 hours or 48 hours, and then WST assay was carried out.” left out

[5] = Example 2, #7_wt fractions 4 μM (100 μg/mL) or cisplatin 4 μM, Fr. 3B set to 100%
[6] = Example 2, cisplatin 33 μM, Fr. 3B set to 100%
[7] = #7_wt fractions 4 μM (100 μg/mL) or cisplatin 4 μM

Question: For `N.N.[Cl][Pt][Cl]` [Cisplatin, cisplatin], which “Relative cell survival rate, SNU-1 cell line, 24 h” value [1, 5] is on record?
Answer: Its value is 85.0%.

Question: What about the “Relative cell survival rate, SNU-1 cell line, 48 h” value [1, 5] of the same molecule?
Answer: Its value is 32.5%.

Question: What about the “Relative cell survival rate, SNU-1 cell line, 24 h” value [1, 6] of the same molecule?
Answer: Its value is 32.0%.

Question: What about the “Relative cell survival rate, SNU-1 cell line, 48 h” value [1, 6] of the same molecule?
Answer: The value was 5.8%.

Question: And the “Relative cell survival rate, SNU-1 cell line, 24 h” value ([1]; Example 3, cisplatin 4 μM, Fr. 3B (#7_C219A) set to 100%)?
Answer: The value was 89.5%.

Question: And the “Relative cell survival rate” value [2]?
Answer: Its value is “about 60%”.

Question: What about the “Relative cell survival rate, PANC-1 cell line, 24 h” value [3, 7] of the same molecule?
Answer: The value was 109.3%.

Question: And the “Relative cell survival rate, PANC-1 cell line, 48 h” value [3, 7]?
Answer: The value was 82.1%.

Question: What about the “Relative cell survival rate, PANC-1 cell line, 24 h” value ([3]; cisplatin 33 μM) of the same molecule?
Answer: Its value is 60.3%.

Question: What about the “Relative cell survival rate, PANC-1 cell line, 48 h” value ([3]; cisplatin 33 μM) of the same molecule?
Answer: The value was 9.6%.

Question: What about the “Relative cell survival rate” value [4] of the same molecule?
Answer: The value was 40%.
